Source: patent US10145848B2, “Small-molecule hydrophobic tagging of fusion proteins and induced degradation of same” (YALE UNIVERSITY, priority 2010, dated 2018)
Residues, ends and D or L forms follow the SMILES beside them. *: point of attachment. Cbz = O=C(OCc1ccccc1)*

Legend:
Assay type in all cases: cell-based
[1] = molecular target: T1, luciferase-HaloTag fusion protein (Rhodococcus rhodochrous, UniProt P0A3G2, C176G/H272F/K175M/Y273L); assay: Luciferase assay in HEK 293T cells expressing luciferase-HaloTag; conditions: 1 μM, 24 hours
T1 construct: The HaloTag protein was obtained from pHT2 vector (Promega); luciferase (from pGL3-Basic); expressed in transfected cells
Protocol: (a) Chemical structures of the representative HaloTag Ligands: HyT5, HyT12, HyT13, HyT16, HyT21 and HyT22. (b) HEK 293T cells expressing HA-HaloTag-luciferase were treated with indicated compounds at 1 μM for 24 hours, at which point luciferase assays were performed.
Ten thousand stable HEK 293T cells infected with HA-luciferase-HaloTag were plated into each well in a 96-well plate. The next day, indicated HyT compounds were added in triplicate and the cells were cultured for another 24 hours. The cells were washed once with cold PBS and lysed in Passive Lysis Buffer (Promega). The luciferase activity was performed by Steady-Glo Luciferase Assay System (Promega) on a Wallac Victor 2 Plate Reader (Perkin Elmer) and the luciferase activity was normalized by protein concentration, as determined by the Bradford assay.
The inventors designed 21 structurally distinct scaffolds as the basis for our hydrophobic Tags (HyTs), and synthesized and tested 30 compounds across these scaffolds composed of hydrophobic moieties linked to the HaloTag haloalkane reactive linker (Table 1, FIG. 5). […]

[2] = molecular target: T2, HA-EGFP-HaloTag fusion protein (Rhodococcus rhodochrous, UniProt P0A3G2, C176G/H272F/K175M/Y273L); assay: Immunoblotting of HA-EGFP-HaloTag in Flp-In 293 cells; conditions: 10 μM pretreatment 1 hour, then 1 μM HyT13, 6 hours
T2 construct: The HaloTag protein was obtained from pHT2 vector (Promega); expressed in transfected cells
Protocol: Flp-In 293 cells expressing HA-EGFP-HaloTag were treated with indicated concentrations of HyT13 for 24 hours. The lysates were probed with anti-HA and anti-β-actin antibodies, with β-actin serving as a loading control. Shown is quantification of three separate experiments, with error bars representing SEM.
Flp-In 293 cells expressing HA-EGFP-HaloTag cells were treated for the indicated times with 1 μM HyT13 and the lysates were probed with anti-HA and anti-β-actin antibodies. The rightmost sample was treated with HyT13 for 24 hours, after which HyT13-free media was provided for 24 hours. Shown is quantification of three separate experiments, with error bars representing SEM.
The indicated cells were washed twice with cold PBS and the cells were lysed in lysis buffer (1×PBS, 1% NP-40, 1 mM EDTA, 40 mM HEPES) with protease inhibitors. The lysates were cleared by centrifugation at 10,000 g for 5 min. The total protein concentration was determined by Bradford assay and 50 μg of protein was loaded onto an 8% Bis-Tris gel. To solubilize polyubiquitinated and aggregated proteins upon proteasome inhibition^42 samples generated for FIG. 12d were lysed with a SDS lysis buffer (1×PBS, 1% NP-40, 1% SDS, 1% sodium deoxycholate, 1 mM EDTA, 40 mM HEPES) with protease inhibitors. The blots were processed by standard procedures with indicated antibodies, and the band intensities were quantified by ImageJ.
As the luciferase assay relied on the loss-of-activity of the luciferase-HaloTag fusion protein, we wanted to determine whether the decrease in luciferase activity resulted from the degradation of the entire fusion protein or perhaps simply inhibition of luciferase activity. We generated a stable Flp-In 293 cell line with a single integration site containing HA-EGFP-HaloTag fusion protein, and employed this cell line to perform kinetic studies with HyT13. […] Consistent with our previous observations, treatment of these cells with 1 μM of HyT13 for 24 hours reduced the mean fluorescence intensity of cells almost 7-fold. Together, these findings provide the first experimental evidence that hydrophobic tagging represents a viable strategy for the control of protein levels.

HEK293 or HeLa cells = assay: Cell viability with Resazurin (alamarBlue); conditions: indicated concentration, 24 hours
Protocol: HEK293 or HeLa cells were treated with indicated concentrations of HyT13 for 24 hours. The oxidation-reduction indicator Resazurin (alamarBlue, Invitrogen) was employed to determine cell viability.

| SMILES | luciferase activity [1] | effect of proteasome inhibitor on HyT13 mediated degradation [2] | cellular toxicity (positive control) (HEK293 or HeLa cells) |
| --- | --- | --- | --- |
| NCCOCCOCCOCCn1cc(CCC(=O)NCCOCCOCCOCC(=O)NCCOCCOCCCCCCCl)nn1 [HyT5, 3-(1-(2-(2-(2-(2-aminoethoxy)ethoxy)ethoxy)ethyl)-1H-1,2,3-triazol-4-yl)-N-(24-chloro-11-oxo-3,6,9,15,18-pentaoxa-12-azatetracosyl)propanamide] | did not decrease the luciferase activity | – | – |
| CC(C)C[C@@H](C=O)NC(=O)[C@H](CC(C)C)NC(=O)[C@H](CC(C)C)NC(=O)OCc1ccccc1 [MG132, reference compound] (Cbz-Leu-Leu-Leu-aldehyde) | – | blocked HyT13 mediated degradation | – |
| CC(=O)NC(CCc1ccccc1)C(=O)NC(CC(C)C)C(=O)NC(Cc1ccccc1)C(=O)NC(CC(C)C)C(=O)C1(C)CO1 (stereo not shown) [YU101, reference compound] | – | blocked HyT13 mediated degradation | toxic to cells |
